Measurements from patent US20230255972A1, “PYRIMIDINE COMPOUND-CONTAINING COMBINATION TO BE USED IN TUMOR TREATMENT” (TAIHO PHARMACEUTICAL CO., LTD., priority 2020, published 2023).
Where two headings read alike, the source gives them in different places.

Legend:
SK-BR-3 cells = assay: Growth inhibitory activity against HER2 expressing cell line SK-BR-3; type: cell-based; conditions: Homo sapiens, SK-BR-3, 72 h; 3 days, CellTiter-Glo 2.0
Method: Test Example 3 Measurement of Growth Inhibitory Activity Against HER2 Expressing Cell Line
SK-BR-3 cells as a HER2 overexpressing human breast cancer cell line were suspended in a McCoy's 5a medium (manufactured by Life Technologies) supplemented with 10% fetal bovine serum. The cell suspension was seeded in each well of a 384-well flat-bottom microplate, and was then cultured in a 5% carbon dioxide gas-containing culture vessel at 37° C. for 1 day. Thereafter, the compound of the present invention was dissolved in DMSO, and the pyrimidine compound was diluted to 500 times the final concentration in DMSO. The compound in the DMSO solution was diluted with DMSO solution or the medium used in the suspension of the cells, and the obtained solution was then added to each well of the culture plate so that the final concentration of DMSO was 0.2%. The obtained mixture was further cultured in the 5% carbon dioxide gas-containing culture vessel at 37° C. for 3 days. After completion of the culture for 3 days in the presence of the compound, the cells were counted using CellTiter-Glo 2.0 (manufactured by Promega), and the growth inhibition percentage was then calculated according to the following equation.
Growth inhibitory percentage (%)=(C−T)/(C)×100 […]

EGFR [d746-750] = molecular target: T1, EGFR [d746-750] (Homo sapiens, UniProt P00533, DEL746-750); assay: Phosphorylation activity inhibitory effect (in vitro) on mutant EGFR d746-750; type: biochemical
T1 construct: purchased Carna Biosciences, Inc
Method: (§1) Test Example 6 Measurement of Phosphorylation Activity Inhibitory Effect (In Vitro) on Wild-Type and Mutant EGFR
(§2) The measurement of the in vitro inhibitory activity of a compound against wild-type and mutant EGFR was outsourced to Carna Biosciences, Inc. (Kinase Profiling Book, https://www.carnabio.com/japanese/product/search.cgi?mode=profiling).
(§3) Specifically, first, the pyrimidine compound of the present invention was diluted stepwise with dimethyl sulfoxide (DMSO). […] To the reaction solution, Termination Buffer was added, so as to terminate the kinase reaction. Finally, using LabChip™ EZ Reader II (PerkinElmer), an unphosphorylated substrate peptide (S) and a phosphorylated peptide (P) were separated and detected according to microchannel capillary electrophoresis.
(§4) As the pyrimidine compound of the present invention, the compound of Example 11 (Example compound 11) was used.

EGFR [D770_N771insNPG] = molecular target: T2, EGFR [D770_N771insNPG] (Homo sapiens, UniProt P00533, INS770NPG); assay: Phosphorylation activity inhibitory effect (in vitro) on mutant EGFR D770_N771insNPG; type: biochemical
T2 construct: purchased Carna Biosciences, Inc
Method: as §1, §2, §3, §4

[1] = tested on: human stomach cancer cell line NCI-N87; assay: Combination (in vivo) of pyrimidine compound and capecitabine, NCI-N87 subcutaneous model
Method: Test Example 18 Combination (In Vivo) of Pyrimidine Compound and Capecitabine
A human stomach cancer cell line NCI-N87 was obtained from American Type Culture Collection (ATCC). The cell line was cultured in RPMI-1640 (containing 4.5 g/L glucose, 10 mM HEPES and 1 mM sodium pyruvate) (FUJIFILM Wako Pure Chemical Corporation) medium containing 10% fetal bovine serum (FBS) in a 5% CO2 incubator at 37° C.
The NCI-N87 cells were resuspended at a concentration of 8×10^7 cells/mL in PBS.
An aqueous solution containing 0.1 N HCl and 0.5% HPMC was used as a control.

[2] = tested on: Human stomach cancer-derived tumor cells 4-1ST; conditions: for BWC (%, Mean ± SE) / T/C (%) / TV (mm^3, mean ± SE): Day 15; for BWC (%, Mean ± SE) / T/C (%) / TV (mm^3, mean ± SE) / Number of Deaths: Days 1-14, po
Method: Human stomach cancer-derived tumor cells 4-1ST were obtained as fragment tumor from the Central Institute for Experimental Animals. Tumor was removed approximately 1 month after subcutaneous transplantation and passage in a 6 week old male nude mouse (BALB/cAJc1-nu/nu, CLEA Japan, Inc.), and a fragment of approximately 2 mm square was prepared. A transplantation needle was filled with one fragment and subcutaneously inserted from around the right last rib of each nude mouse so as to enter the right back. The tumor was pushed out by pressing the inner syringe and thereby transplanted. For the measurement of the tumor size, electronic calipers were used. […] A tumor volume (TV) was calculated from this major axis and minor axis. A relative tumor volume change percentage (T/C) was calculated from the calculated tumor volume. TV and T/C were calculated according to the following equations:
Tumor Volume (TV)(mm^3)=(Major axis,mm)×(Minor axis,mm)×(Minor axis,mm)/2
Relative tumor volume change percentage (T/C)(%)=(Mean TV of the administration group)/(Mean TV of a control group)×100
For the measurement of the body weight, an animal electronic balance was used. A body weight change percentage on the n^th day (BWCn) from the body weight on 0th day (BW0) and the body weight on the n^th day (BWn) was calculated according to the following equation:
Body weight change percentage BWCn (%)=(BWn−BW0)/BW0×100
Nude mice having TV of 50 to 300 mm^3 were selected and assigned to groups each involving 6 animals by the equal number method [MiSTAT (ver. 2.1)] such that the means of TV were equal among the groups. […] An untreated group was used as a control.
The presence or absence of a combinatorial effect and toxicity was judged from the tumor sizes and the body weights on the grouping day (Day 0) and the judgement day (Day 15). During the administration period, the body weight was measured every day for calculation of the amount of the dosing solution.

[3] = day 15, Example 11 6.25 mg/kg/day, day 1-14, p.o.

T2 sequence (P00533 with tags, fused parts or gaps INS770NPG limits assumed): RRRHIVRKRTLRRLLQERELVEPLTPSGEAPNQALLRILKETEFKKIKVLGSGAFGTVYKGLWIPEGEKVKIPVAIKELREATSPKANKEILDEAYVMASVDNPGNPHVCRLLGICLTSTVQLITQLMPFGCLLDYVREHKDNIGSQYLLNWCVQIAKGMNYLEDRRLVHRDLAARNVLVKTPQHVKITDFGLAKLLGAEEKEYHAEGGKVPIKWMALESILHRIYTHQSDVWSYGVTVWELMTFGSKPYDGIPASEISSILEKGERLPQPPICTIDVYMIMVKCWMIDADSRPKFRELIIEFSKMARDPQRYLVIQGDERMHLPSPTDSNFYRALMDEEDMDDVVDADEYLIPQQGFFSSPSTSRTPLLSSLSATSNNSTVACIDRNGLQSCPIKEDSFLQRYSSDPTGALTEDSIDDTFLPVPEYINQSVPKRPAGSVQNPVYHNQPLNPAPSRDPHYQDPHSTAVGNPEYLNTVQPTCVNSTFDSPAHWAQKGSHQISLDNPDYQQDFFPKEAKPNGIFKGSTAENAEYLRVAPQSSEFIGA
T1 sequence (P00533 with tags, fused parts or gaps DEL746-750): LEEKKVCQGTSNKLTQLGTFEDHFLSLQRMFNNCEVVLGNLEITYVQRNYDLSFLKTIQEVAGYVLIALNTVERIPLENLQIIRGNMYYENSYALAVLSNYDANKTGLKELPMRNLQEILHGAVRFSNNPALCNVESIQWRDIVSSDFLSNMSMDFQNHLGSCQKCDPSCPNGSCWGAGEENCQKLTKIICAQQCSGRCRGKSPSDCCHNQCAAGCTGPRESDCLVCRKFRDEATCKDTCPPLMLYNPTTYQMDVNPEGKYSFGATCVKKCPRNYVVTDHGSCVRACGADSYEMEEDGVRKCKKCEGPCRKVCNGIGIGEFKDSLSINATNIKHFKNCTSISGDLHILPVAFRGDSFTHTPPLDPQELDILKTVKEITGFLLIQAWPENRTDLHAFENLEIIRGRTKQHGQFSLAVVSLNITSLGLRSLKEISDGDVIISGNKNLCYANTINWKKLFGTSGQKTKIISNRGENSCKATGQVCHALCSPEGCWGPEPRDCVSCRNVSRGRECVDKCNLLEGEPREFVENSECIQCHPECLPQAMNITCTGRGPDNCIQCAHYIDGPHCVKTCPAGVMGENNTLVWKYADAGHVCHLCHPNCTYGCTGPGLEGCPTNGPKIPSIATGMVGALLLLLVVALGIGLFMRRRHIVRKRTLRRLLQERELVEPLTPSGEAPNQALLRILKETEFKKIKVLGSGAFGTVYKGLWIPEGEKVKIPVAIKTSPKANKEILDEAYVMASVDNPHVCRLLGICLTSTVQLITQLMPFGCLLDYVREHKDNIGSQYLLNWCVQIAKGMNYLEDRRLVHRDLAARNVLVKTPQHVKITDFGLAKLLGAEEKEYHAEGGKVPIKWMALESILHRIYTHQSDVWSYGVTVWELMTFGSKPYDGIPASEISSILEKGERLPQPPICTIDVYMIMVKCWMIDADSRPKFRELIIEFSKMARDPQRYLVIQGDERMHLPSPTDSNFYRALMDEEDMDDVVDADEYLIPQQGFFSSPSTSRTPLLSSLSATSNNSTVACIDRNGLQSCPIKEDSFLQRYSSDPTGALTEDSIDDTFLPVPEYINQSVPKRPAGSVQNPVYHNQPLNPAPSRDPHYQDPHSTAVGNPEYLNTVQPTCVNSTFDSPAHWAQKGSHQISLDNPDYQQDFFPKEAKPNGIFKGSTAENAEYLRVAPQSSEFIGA

SMILES: C=CC(=O)N1C[C@H](n2c(C#CC3CC3)c(C(=O)N[C@H](C)c3ccccc3)c3c(N)ncnc32)C[C@@H]1C [Example 11, 7-((3R,5S)-1-acryloyl-5-methylpyrrolidin-3-yl)-4-amino-6-(cyclopropylethynyl)-N—((R)-1-phenylethyl)-7H-pyrrolo[2,3-d]pyrimidine-5-carboxamide]
- IC50 (SK-BR-3 cells): 6.6 nM
- IC50 (EGFR [d746-750]): 0.25 nM
- IC50 (EGFR [D770_N771insNPG]): 0.55 nM
- Number of Death ([1]; Example 11 6.25 mg/kg/day, day 1-14, p.o.): 0
- TV on Day 15 versus control group (Dunnett's test) ([1]; capecitabine and Example 11 po once a day, Days 1-14): significantly lower TV
- T/C (%) [1, 3]: 47%
- Tumor volume (mm^3) day 15 Mean ± S.E. [1, 3]: 272.43 ± 22.22 mm^3
- BWC (%) Mean ± S.E. ([1]; mouse, in vivo, po, 6.25 mg/kg/day): 6.3 ± 0.9%
- BWC (%, Mean ± SE) ([2]; Example 11 6.25 mg/kg/day): 3.69 ± 0.75%
- T/C (%) ([2]; Example 11 6.25 mg/kg/day): 22.0%
- TV (mm^3, mean ± SE) ([2]; Example 11 6.25 mg/kg/day): 448.7 ± 79.0 mm^3
- BWC (%, Mean ± SE) ([2]; Example 11 12.5 mg/kg/day): 3.79 ± 1.07%
- T/C (%) ([2]; Example 11 12.5 mg/kg/day): 3.0%
- TV (mm^3, mean ± SE) ([2]; Example 11 12.5 mg/kg/day): 62.0 ± 6.9 mm^3
- Number of Deaths ([2]; Example 11 6.25 mg/kg/day): 0
- Number of Deaths ([2]; Example 11 12.5 mg/kg/day): 0
- TV on Day 15 versus control group (Dunnett's test) ([2]; trastuzumab iv Days 1 and 8 (except for the 20 mg/kg/day group), Example 11 po Days 1-14): significantly lower TV
